Viability data for 49 compounds are collected here from publication PMC11995724, “Antibiotic target discovery by integrated phenotypic and activity-based profiling of electrophilic fragments” (Cell chemical biology, 2025).

Structures are written as SMILES. Where a name gives a salt, the structure may show the parent alone.

The viability is a read-out of living cells in per cent, often relative to untreated cells.

The nature of this data set: in vitro. As to conditions: human, hek293t cells.
Turning to `C=CC(=O)NC1(c2ccccc2)CCOC1` (stereo not shown) [3-P04, N-(3-phenyloxolan-3-yl)prop-2-enamide], the viability at 48 h, 25 µM came out at 89.3%.

On to `CCn1cc(NC(=O)CCl)cn1` [6-I15, 2-chloro-N-(1-ethyl-1H-pyrazol-4-yl)acetamide hydrochloride], for which the viability at 48 h, 25 µM turned out to be 10.5%.

For the compound `O=C(CCl)Nc1ncc[nH]1` [6-B03, 2-chloro-N-(1H-imidazol-2-yl)acetamide hydrochloride], the viability at 48 h, 25 µM is 37.4%.

Take `C=CC(=O)NCCNC(=O)[C@@]12CC[C@@](C)(C(=O)O1)C2(C)C` [2-J18, N-(2-{[(1S,4R)-4,7,7-trimethyl-3-oxo-2-oxabicyclo[2.2.1]heptan-1-yl]formamido}ethyl)prop-2-enamide]: the viability at 48 h, 25 µM is 52.8%.

On to `C[C@@H](NC(=O)CCl)c1ccccc1` [6-O20, 2-chloro-N-[(1R)-1-phenylethyl]acetamide], for which the viability at 48 h, 25 µM is 121%.

Regarding `C=CC(=O)NCc1ccccc1CN1C(=O)NC2(CCCCC2)C1=O` [2-O11, N-{[2-({2,4-dioxo-1,3-diazaspiro[4.5]decan-3-yl}methyl)phenyl]methyl}prop-2-enamide], the viability at 48 h, 25 µM stood at 71%.

In the case of `CC(Cl)C(=O)Nc1ccc(SC(F)F)cc1` (stereo not shown) [4-L09, 2-chloro-N-{4-[(difluoromethyl)sulfanyl]phenyl}propanamide], the viability at 48 h, 25 µM came out at 71.9%.

For the compound `O=C(CCl)Nc1ccc(Cl)c(S(=O)(=O)N2CCCCC2)c1` [4-P14, 2-chloro-N-[4-chloro-3-(piperidine-1-sulfonyl)phenyl]acetamide], the viability at 48 h, 25 µM was -0.167%.

Turning to `N#CC(=Cc1cnc(-c2ccccc2)nc1)C(=O)NCc1ccco1` [9-M14, 2-cyano-N-[(furan-2-yl)methyl]-3-(2-phenylpyrimidin-5-yl)prop-2-enamide], the viability at 48 h, 25 µM was 143%.

For `C=CC(=O)N(Cc1cn(C)nc1CC)C1CCCCCC1` [1-H09, N-cycloheptyl-N-[(3-ethyl-1-methyl-1H-pyrazol-4-yl)methyl]prop-2-enamide], the viability at 48 h, 25 µM was found to be 84.9%.

On to `C=CC(=O)N(C)CC(=O)N1CCC[C@H](NC(=O)C(F)(F)F)[C@@H]1C` (racemic) [2-A20, rac-N-methyl-N-{2-[(2R,3R)-2-methyl-3-(2,2,2-trifluoroacetamido)piperidin-1-yl]-2-oxoethyl}prop-2-enamide], for which the viability at 48 h, 25 µM was found to be 96%.

In the case of `O=C(CCl)N[C@H]1CCN(S(=O)(=O)c2ccccc2)C1` [7-P16, N-[(3S)-1-(benzenesulfonyl)pyrrolidin-3-yl]-2-chloroacetamide], the viability at 48 h, 25 µM is 0.479%.

Take `C=CC(=O)N1CCCC(c2nc(C)no2)C1` (stereo not shown) [2-K12, 1-[3-(3-methyl-1,2,4-oxadiazol-5-yl)piperidin-1-yl]prop-2-en-1-one]: the viability at 48 h, 25 µM is 101%.

On to `Cc1cc(CN(C(=O)CCl)c2csnc2C)cs1` [5-C12, 2-chloro-N-(3-methyl-1,2-thiazol-4-yl)-N-[(5-methylthiophen-3-yl)methyl]acetamide], for which the viability at 48 h, 25 µM came to 0.6%.

With `Cc1cc(C(=O)CCl)c(F)cc1F` [10-O03, 2-chloro-1-(2,4-difluoro-5-methylphenyl)ethan-1-one], the viability at 48 h, 25 µM stood at 2.01%.

As for `C=CC(=O)N(Cc1nccc2c1CCCC2)C1CCCC(OC)C1` (stereo not shown) [1-F11, N-(3-methoxycyclohexyl)-N-[(5,6,7,8-tetrahydroisoquinolin-1-yl)methyl]prop-2-enamide], the viability at 48 h, 25 µM came to 100%.

Take `COc1cccc(NC(=O)C(C)Cl)c1` (stereo not shown) [6-I03, 2-chloro-N-(3-methoxyphenyl)propanamide]: the viability at 48 h, 25 µM was found to be 105%.

`N#CC(=Cc1cccs1)C(=O)Nc1cccc2ncccc12` [8-D20, 2-cyano-N-(quinolin-5-yl)-3-(thiophen-2-yl)prop-2-enamide]: the viability at 48 h, 25 µM is 84.3%.

`N#Cc1c(NC(=O)CCl)oc(-c2ccco2)c1-c1ccco1` [5-D10, 2-chloro-N-[4'-cyano-2'-(furan-2-yl)-[2,3'-bifuran]-5'-yl]acetamide]: the viability at 48 h, 25 µM came out at 45.5%.

As for `CCc1oc2ccccc2c1C=C(C#N)C(=O)NC1CC1` [9-M12, 2-cyano-N-cyclopropyl-3-(2-ethyl-1-benzofuran-3-yl)prop-2-enamide], the viability at 48 h, 25 µM is 74.5%.

As to `C=CC(=O)Nc1cccc(-c2nc(COC)no2)c1C` [1-J08, N-{3-[3-(methoxymethyl)-1,2,4-oxadiazol-5-yl]-2-methylphenyl}prop-2-enamide], the viability at 48 h, 25 µM was determined as 79%.

Consider `C=CC(=O)N1CCC([C@@H](C)O)CC1` [3-E12, 1-{4-[(1R)-1-hydroxyethyl]piperidin-1-yl}prop-2-en-1-one], for which the viability at 48 h, 25 µM was determined as 104%.

In the case of `O=C1C=CC(=O)N1c1ccc(F)c(Cl)c1` [10-D15, 1-(3-chloro-4-fluorophenyl)-2,5-dihydro-1H-pyrrole-2,5-dione], the viability at 48 h, 25 µM came to 79.2%.

Turning to `Cc1ccc(N2C(=O)C=CC2=O)c(C)c1` [10-N07, 1-(2,4-dimethylphenyl)-2,5-dihydro-1H-pyrrole-2,5-dione], the viability at 48 h, 25 µM came to 102%.

In the case of `C=CC(=O)NCc1cnc(-c2ccc(C(F)(F)F)cc2)s1` [1-C13, N-({2-[4-(trifluoromethyl)phenyl]-1,3-thiazol-5-yl}methyl)prop-2-enamide], the viability at 48 h, 25 µM stood at 75.8%.

With `N#CC(=Cc1csc(C2CC2)n1)C(=O)Nc1ccccc1C(=O)O` [9-C16, 2-[2-cyano-3-(2-cyclopropyl-1,3-thiazol-4-yl)prop-2-enamido]benzoic acid], the viability at 48 h, 25 µM was found to be 92.9%.

On to `Cc1noc(C2CN(C(=O)C(C)Cl)C2)n1` (stereo not shown) [7-G04, 2-chloro-1-[3-(3-methyl-1,2,4-oxadiazol-5-yl)azetidin-1-yl]propan-1-one], for which the viability at 48 h, 25 µM worked out at 92.2%.

Consider `CCCCNC(=O)C(C#N)=Cc1ccc(Cl)cc1Cl` [9-O07, N-butyl-2-cyano-3-(2,4-dichlorophenyl)prop-2-enamide], for which the viability at 48 h, 25 µM is 69%.

`O=C(CCl)Nc1nnc(SCc2ccccc2)s1` [4-F15, N-[5-(benzylsulfanyl)-1,3,4-thiadiazol-2-yl]-2-chloroacetamide]: the viability at 48 h, 25 µM worked out at 0.76%.

Regarding `Cc1cc(C(C)(C)C)cc(C)c1NC(=O)CCl` [4-L19, N-(4-tert-butyl-2,6-dimethylphenyl)-2-chloroacetamide], the viability at 48 h, 25 µM was 1.04%.

For the compound `CN(CC(=O)Nc1c(Cl)cccc1Cl)C(=O)CCl` [6-M05, 2-chloro-N-{[(2,6-dichlorophenyl)carbamoyl]methyl}-N-methylacetamide], the viability at 48 h, 25 µM worked out at 2.21%.

Turning to `Cc1nn(C)c(C)c1C=C(C#N)C(=O)Nc1ccc2c(c1)OCCO2` [9-D03, 2-cyano-N-(2,3-dihydro-1,4-benzodioxin-6-yl)-3-(1,3,5-trimethyl-1H-pyrazol-4-yl)prop-2-enamide], the viability at 48 h, 25 µM is 112%.

With `CC(Cl)C(=O)N1CCCc2c1ccc1c2ncn1C` (stereo not shown) [6-B19, 2-chloro-1-{3-methyl-3H,6H,7H,8H,9H-imidazo[4,5-f]quinolin-6-yl}propan-1-one], the viability at 48 h, 25 µM came out at 90.9%.

With `Cc1noc(C)c1CN(C)C(=O)CCl` [5-G06, 2-chloro-N-[(3,5-dimethyl-1,2-oxazol-4-yl)methyl]-N-methylacetamide], the viability at 48 h, 25 µM amounted to 1.87%.

With `O=C(CCl)NCCC1=CCCCC1` [4-H05, 2-chloro-N-[2-(cyclohex-1-en-1-yl)ethyl]acetamide], the viability at 48 h, 25 µM amounted to 20.9%.

Turning to `CCOc1ccc(-n2c(C)cc(C(=O)CCl)c2C)cc1` [10-K08, 2-chloro-1-[1-(4-ethoxyphenyl)-2,5-dimethyl-1H-pyrrol-3-yl]ethan-1-one], the viability at 48 h, 25 µM turned out to be 0.112%.

As to `CC(Cl)C(=O)c1ccc(NC(=O)C(C)(C)C)cc1` (stereo not shown) [10-M06, N-[4-(2-chloropropanoyl)phenyl]-2,2-dimethylpropanamide], the viability at 48 h, 25 µM came to 97.9%.

As to `N#CC(=Cc1ccsc1)C(=O)Nc1nccs1` [9-C17, 2-cyano-N-(1,3-thiazol-2-yl)-3-(thiophen-3-yl)prop-2-enamide], the viability at 48 h, 25 µM worked out at 121%.

With `NC(=O)CCN(C(=O)CCl)c1ccc(F)cc1` [5-C03, 3-[2-chloro-N-(4-fluorophenyl)acetamido]propanamide], the viability at 48 h, 25 µM came to 1.62%.

On to `Cc1csc(C2(NC(=O)CCl)CCOCC2)n1` [7-J03, 2-chloro-N-[4-(4-methyl-1,3-thiazol-2-yl)oxan-4-yl]acetamide], for which the viability at 48 h, 25 µM worked out at 0.732%.

Consider `CC(Cl)C(=O)Nc1ccccc1OC(F)F` (stereo not shown) [6-J08, 2-chloro-N-[2-(difluoromethoxy)phenyl]propanamide], for which the viability at 48 h, 25 µM came to 115%.

With `C=CC(=O)NCc1nnc2ccccn12` [1-H19, N-({[1,2,4]triazolo[4,3-a]pyridin-3-yl}methyl)prop-2-enamide], the viability at 48 h, 25 µM amounted to 182%.

Regarding `CC(=O)Nc1c(C)cc(C)c(C(=O)CCl)c1C` [10-A12, N-[3-(2-chloroacetyl)-2,4,6-trimethylphenyl]acetamide], the viability at 48 h, 25 µM came out at 98.1%.

Consider `COc1ccccc1NC(=O)C(C)Cl` (stereo not shown) [5-L20, 2-chloro-N-(2-methoxyphenyl)propanamide], for which the viability at 48 h, 25 µM is 91.3%.

In the case of `CSC1=C(C#N)C2(CCCCC2)C(C#N)=C(NC(=O)CCl)N1` [4-E10, 2-chloro-N-[1,5-dicyano-4-(methylsulfanyl)-3-azaspiro[5.5]undeca-1,4-dien-2-yl]acetamide], the viability at 48 h, 25 µM was 0.534%.

In the case of `CC(Cl)C(=O)N(C)Cc1cc(C(C)(C)C)[nH]n1` (stereo not shown) [7-B21, N-[(5-tert-butyl-1H-pyrazol-3-yl)methyl]-2-chloro-N-methylpropanamide], the viability at 48 h, 25 µM was found to be 80.5%.

With `COc1ccc(C=C(C#N)C(=O)NC(C)c2ccccc2)cc1O` (stereo not shown) [8-J18, 2-cyano-3-(3-hydroxy-4-methoxyphenyl)-N-(1-phenylethyl)prop-2-enamide], the viability at 48 h, 25 µM was determined as 93.3%.

`N#CC(=Cc1cccc(Cl)c1Cl)C(=O)NCc1ccccc1` [8-L04, N-benzyl-2-cyano-3-(2,3-dichlorophenyl)prop-2-enamide]: the viability at 48 h, 25 µM came to 13.2%.

As for `CC(Cl)C(=O)NCC1CCCCN1C(=O)C(F)(F)F` (stereo not shown) [7-K13, 2-chloro-N-{[1-(2,2,2-trifluoroacetyl)piperidin-2-yl]methyl}propanamide], the viability at 48 h, 25 µM came out at 83.8%.
